From patent US20240270821A1, “GIP/GLP1/GCG TRI-RECEPTOR AGONISTS AND USES THEREOF” (priority 2023, published 2024)
pEC50: −log10 of the molar value. Starred links: 1 amine or outer side, 2 acyl side, 3 side chain; linkers in the order of their positions; H or OH if unused. Non-standard residues stand in square brackets, D forms with d. Groups on a side chain read outwards from the residue. *: point of attachment. C18 diacid = O=C(O)CCCCCCCCCCCCCCCCC(=O)*; αMePhe(2-F) = C[C@](N)(Cc1ccccc1F)C(=O)O; γGlu = O=C(O)[C@H](CCC(=O)[*:2])N[*:1]; αMe4Pal = C[C@](N)(Cc1ccncc1)C(=O)O; αMeY = C[C@](N)(Cc1ccc(O)cc1)C(=O)O; 4Pal = N[C@@H](Cc1ccncc1)C(=O)O; αMeL = CC(C)C[C@](C)(N)C(=O)O; Orn = NCCC[C@H](N)C(=O)O; AEEA = NCCOCCOCC(=O)O; Aib = CC(C)(N)C(=O)O

Experiments:
Assay type in all cases: cell-based
[1] = target: T1, hGLP-1R (Homo sapiens, UniProt P43220); test: Functional cAMP activity in the presence of 1% HSA; conditions: read-out: cAMP Rel EC50, hGLP-1R
T1 sequence (P43220 24-463): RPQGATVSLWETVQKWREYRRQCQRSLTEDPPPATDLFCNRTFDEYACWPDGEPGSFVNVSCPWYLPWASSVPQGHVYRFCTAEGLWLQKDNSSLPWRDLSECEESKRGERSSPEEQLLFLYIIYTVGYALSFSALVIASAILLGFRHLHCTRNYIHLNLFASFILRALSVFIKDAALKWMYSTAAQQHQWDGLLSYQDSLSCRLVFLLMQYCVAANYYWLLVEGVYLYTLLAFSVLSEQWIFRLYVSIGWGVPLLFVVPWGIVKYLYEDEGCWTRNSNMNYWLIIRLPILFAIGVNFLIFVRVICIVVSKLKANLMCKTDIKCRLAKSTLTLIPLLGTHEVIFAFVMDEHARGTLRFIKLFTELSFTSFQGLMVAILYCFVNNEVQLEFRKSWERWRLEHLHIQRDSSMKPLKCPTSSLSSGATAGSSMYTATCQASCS

[2] = target: T2, hGIPR (Homo sapiens, UniProt P48546); test: Functional cAMP activity in the presence of 1% HSA; conditions: read-out: cAMP Rel EC50, hGIPR
T2 sequence (P48546 22-466): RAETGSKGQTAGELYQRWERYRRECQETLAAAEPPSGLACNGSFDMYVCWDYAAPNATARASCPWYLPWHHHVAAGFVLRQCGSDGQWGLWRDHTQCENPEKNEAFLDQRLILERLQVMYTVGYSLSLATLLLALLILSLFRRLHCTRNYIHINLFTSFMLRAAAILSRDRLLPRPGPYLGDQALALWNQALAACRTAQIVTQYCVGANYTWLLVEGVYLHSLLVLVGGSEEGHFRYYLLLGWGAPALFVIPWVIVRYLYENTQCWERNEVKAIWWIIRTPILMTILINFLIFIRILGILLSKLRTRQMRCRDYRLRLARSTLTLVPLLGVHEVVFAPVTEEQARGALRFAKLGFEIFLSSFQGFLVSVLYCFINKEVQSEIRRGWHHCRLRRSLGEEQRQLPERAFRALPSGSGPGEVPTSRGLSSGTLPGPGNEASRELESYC

[3] = target: human GcgR (Homo sapiens, UniProt P47871); test: Functional cAMP activity in the presence of 1% HSA; conditions: read-out: cAMP Rel EC50, hGcgR
Chain of human GcgR (P47871 26-477): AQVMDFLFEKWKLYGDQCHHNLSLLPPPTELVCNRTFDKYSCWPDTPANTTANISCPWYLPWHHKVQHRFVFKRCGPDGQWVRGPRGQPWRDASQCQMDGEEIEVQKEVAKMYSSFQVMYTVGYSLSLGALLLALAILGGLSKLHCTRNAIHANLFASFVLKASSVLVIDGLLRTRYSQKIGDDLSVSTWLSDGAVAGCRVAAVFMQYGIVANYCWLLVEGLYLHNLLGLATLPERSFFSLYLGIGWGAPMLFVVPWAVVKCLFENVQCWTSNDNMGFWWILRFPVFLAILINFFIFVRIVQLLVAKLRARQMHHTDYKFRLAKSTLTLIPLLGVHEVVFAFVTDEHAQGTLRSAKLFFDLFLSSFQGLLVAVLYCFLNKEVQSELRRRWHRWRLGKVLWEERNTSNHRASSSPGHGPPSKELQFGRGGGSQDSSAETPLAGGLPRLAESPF

[4] = target: T1, hGLP-1R; test: Functional cAMP activation in the presence of 0.1% casein (no HSA); conditions: read-out: Relative cAMP EC50, hGLP-1R;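 on Relative cAMP EC50, hGIPR: intracellular cAMP rise after 30 min at 37 °C read by HTRF against a standard curve, scaled between buffer alone (0%) and top control ligand concentration (100%), four-parameter fit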;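 on Relative cAMP EC50, hGLP-1R: intracellular cAMP rise after 30 min at 37 °C read by HTRF, normalized between buffer only (0%) and maximal control ligand (100%), four-parameter variable-slope fit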;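 on Relative cAMP EC50, hGcgR: intracellular cAMP rise after 30 min at 37 °C, read by HTRF against a cAMP standard curve, scaled from buffer only (0%) to maximal control ligand response (100%)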
[5] = target: T2, hGIPR; test: as above; conditions: read-out: Relative cAMP EC50, hGIPR
[6] = target: hGcgR (Homo sapiens, UniProt P47871); test: as above; conditions: read-out: Relative cAMP EC50, hGcgR;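 further: intracellular cAMP rise after 30 min at 37 °C, read by HTRF against a cAMP standard curve, scaled from buffer only (0%) to maximal control ligand response (100%)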
Chain of hGcgR (P47871 26-477): as above

Row | Substance | pEC50 [1] | pEC50 [2] | pEC50 [3] | pEC50 [4] | pEC50 [5] | pEC50 [6]
1 | H-Y[Aib]QGT[αMePhe(2-F)]TSD[4Pal]SI[αMeL]LD[Orn]K([AEEA-γGlu-C18 diacid])AQ[αMe4Pal][Orn]FI[dE][αMeY]LEEGGPSSGEPPPEGT-NH2 [Example 506] | 6.65 | 7.54 | 5.63 | 8.67 | 9.51 | 7.77
2 | H-Y[Aib]QGT[αMePhe(2-F)]TSD[4Pal]SI[αMeL]LD[Orn]K([AEEA-γGlu-C18 diacid])AQ[αMe4Pal][Orn]FI[dE][αMeY]LIEGGPSSGAPPPESE-NH2 [Example 755] | 7.62 | 8.86 | 6.56 | 9.76 | 11.09 | 8.64
3 | H-Y[Aib]QGT[αMePhe(2-F)]TSD[4Pal]SI[αMeL]LD[Orn]K([AEEA-γGlu-C18 diacid])AQ[αMe4Pal][Orn]FI[dE][αMeY]LIEGGPSSGAPPPESEE-NH2 [Example 756] | 7.55 | 8.79 | 6.43 | 9.67 | 11.02 | 8.65
4 | H-Y[Aib]QGT[αMePhe(2-F)]TSD[4Pal]SI[αMeL]LD[Orn]K([AEEA-γGlu-C18 diacid])AQ[αMe4Pal][Orn]FI[dE][αMeY]LIEGGPSSGDPPPEGE-NH2 [Example 727] | 7.62 | 8.96 | 6.54 | 9.57 | 10.96 | 8.62
5 | H-Y[Aib]QGT[αMePhe(2-F)]TSD[4Pal]SI[αMeL]LD[Orn]K([AEEA-γGlu-C18 diacid])AQ[αMe4Pal][Orn]FI[dE][αMeY]LIEGGPSSGDPPPEGTE-NH2 [Example 731] | 7.56 | 8.90 | 6.54 | 9.57 | 10.93 | 8.63
6 | H-Y[Aib]QGT[αMePhe(2-F)]TSD[4Pal]SI[αMeL]LD[Orn]K([AEEA-γGlu-C18 diacid])AQ[αMe4Pal][Orn]FI[dE][αMeY]LIEGGPSSGDPPPEGTGE-NH2 [Example 732] | 7.57 | 8.90 | 6.49 | 9.57 | 10.93 | 8.66
7 | H-Y[Aib]QGT[αMePhe(2-F)]TSD[4Pal]SI[αMeL]LD[Orn]K([AEEA-γGlu-C18 diacid])AQ[αMe4Pal][Orn]FI[dE][αMeY]LIEGGPSSGDPPPETE-NH2 [Example 730] | 7.48 | 8.89 | 6.67 | 9.61 | 10.91 | 8.61
8 | H-Y[Aib]QGT[αMePhe(2-F)]TSD[4Pal]SI[αMeL]LD[Orn]K([AEEA-γGlu-C18 diacid])AQ[αMe4Pal][Orn]FI[dE][αMeY]LIEGGPSSGEPPPEAE-NH2 [Example 676] | 7.61 | 8.97 | 6.68 | 9.57 | 10.97 | 8.63
9 | H-Y[Aib]QGT[αMePhe(2-F)]TSD[4Pal]SI[αMeL]LD[Orn]K([AEEA-γGlu-C18 diacid])AQ[αMe4Pal][Orn]FI[dE][αMeY]LIEGGPSSGEPPPEGTGE-NH2 [Example 680] | 7.54 | 8.98 | 6.59 | 9.61 | 11.00 | 8.70
10 | H-Y[Aib]QGT[αMePhe(2-F)]TSD[4Pal]SI[αMeL]LD[Orn]K([AEEA-γGlu-C18 diacid])AQ[αMe4Pal][Orn]FI[dE][αMeY]LIEGGPSSGEPPPESE-NH2 [Example 677] | 7.68 | 8.99 | 6.72 | 9.60 | 10.95 | 8.66
11 | H-Y[Aib]QGT[αMePhe(2-F)]TSD[4Pal]SI[αMeL]LD[Orn]K([AEEA-γGlu-C18 diacid])AQ[αMe4Pal][Orn]FI[dE][αMeY]LIEGGPSSGEPPPESEE-NH2 [Example 753] | 7.42 | 8.73 | 6.45 | 9.57 | 10.90 | 8.57
12 | H-Y[Aib]QGT[αMePhe(2-F)]TSD[4Pal]SI[αMeL]LD[Orn]K([AEEA-γGlu-C18 diacid])AQ[αMe4Pal][Orn]FI[dE][αMeY]LIEGGPSSGEPPPETE-NH2 [Example 678] | 7.66 | 9.03 | 6.61 | 9.60 | 10.88 | 8.64
